These results are taken from patent US8729081B2, “Compositions and methods for treating alcohol use disorders, pain and other diseases” (VM Discovery Inc., priority 2008, dated 2014).

Common to all, as to assay type: biochemical
The target of assay [1] is T1, PKCε (Homo sapiens, UniProt Q02156).
T1 construct: host or cells: insect cells
The assay is described as follows: Kinetic analysis of PKCε inhibition (initial velocity vs ATP, Lineweaver-Burk). The procedure: FIG. 1. […] (A) Initial velocity (Vi) plotted against ATP concentration at various concentrations of the compound plus vehicle control.
The above in vitro assay can also be used to measure the initial velocity of the kinase reaction, varying the concentrations of ATP (1-60 μM) or S25 peptide substrate (1-500 nM). Values for km and Vmax are calculated for drug- and vehicle-treated samples by linear regression analysis of double reciprocal Lineweaver Burke plots (see Examples).

The target in assay [2] is T2, RSK1 (Homo sapiens, UniProt Q15418).
T2 construct: purchased Reaction Biology Corp
In words: Kinase profiling. As to the method:
[The procedure below names another target; the source lists this target under the same test.] (§1) Kinase profiling was performed using HotSpot technology (Reaction Biology Corp. 11 Malvern, Pa., USA). This technology is a radioisotope-based P81 filter-binding assay. Compound of the present invention were dissolved in pure DMSO to make a 10 mM stock, then diluted in pure DMSO to make a serial dilution based on the IC50 ranges. PKCε (h) (0.4 nM, human recombinant protein expressed in insect cells. Mw=83.7 kDa) and substrate (20 μM peptide substrate, [RFARKGSLRQKNV]) were diluted in the reaction buffer (20 mM HEPES-HCl, pH 7.5, 10 mM MgCl2, 1 mM EGTA, 0.02% Brij35, 0.1 mM Na3VO4, 0.02 mg/ml BSA, 2 mM DTT, and 1% DMSO), and then 5 nL of compound was delivered into PKCε (h) and substrate mixture by acoustic technology using Echo 550 (LabCyte Inc., Sunnyvale, Calif.). The reaction was initiated by the addition of [γ-33P-ATP] into the reaction mixture (final concentration was 10 μM) and stopped after at least 40 min incubation at room temperature. The unreacted free 33P-ATP was washed away before detection.

The target of assay [3] is T3, PKCdelta (Homo sapiens, UniProt Q05655).
T3 construct: purchased Reaction Biology Corp
In words: Kinase profiling. As to the method: [The procedure below names another target; the source lists this target under the same test.] as §1

The target in assay [4] is T4, CAMKIIa_alpha (Homo sapiens, UniProt Q9UQM7).
T4 construct: purchased Reaction Biology Corp
T4 sequence (Q9UQM7 whole entry): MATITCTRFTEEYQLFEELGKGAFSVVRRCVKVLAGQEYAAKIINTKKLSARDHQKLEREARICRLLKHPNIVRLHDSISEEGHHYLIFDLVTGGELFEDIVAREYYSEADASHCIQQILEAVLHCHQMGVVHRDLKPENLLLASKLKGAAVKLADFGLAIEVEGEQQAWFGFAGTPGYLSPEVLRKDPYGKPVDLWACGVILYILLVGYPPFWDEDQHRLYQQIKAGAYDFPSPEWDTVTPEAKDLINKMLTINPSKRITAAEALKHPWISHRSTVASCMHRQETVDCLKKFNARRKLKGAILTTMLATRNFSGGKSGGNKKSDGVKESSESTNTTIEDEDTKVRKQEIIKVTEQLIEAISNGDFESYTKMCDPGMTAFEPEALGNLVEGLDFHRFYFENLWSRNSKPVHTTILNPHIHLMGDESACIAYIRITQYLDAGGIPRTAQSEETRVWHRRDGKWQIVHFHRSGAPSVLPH
In words: Kinase profiling. The procedure:
[The procedure below names another target; the source lists this target under the same test.] as §1

Assay [5] deals with T5, PKCzeta (Homo sapiens, UniProt Q05513).
T5 construct: purchased Reaction Biology Corp
In words: Kinase profiling. The procedure:
[The procedure below names another target; the source lists this target under the same test.] as §1

The target in assay [6] is T6, ROCK1 (Homo sapiens, UniProt Q13464).
T6 construct: purchased Reaction Biology Corp
The assay is described as follows: Kinase profiling. As to the method: [The procedure below names another target; the source lists this target under the same test.] as §1

For assay [7], the target named is T7, CDK1/cyclinB (Homo sapiens, UniProt P06493).
T7 construct: purchased Reaction Biology Corp
In words: Kinase profiling. The procedure:
[The procedure below names another target; the source lists this target under the same test.] as §1

Assay [8] has as its target T8, TrkA (Homo sapiens, UniProt P04629).
T8 construct: purchased Reaction Biology Corp
In words: Kinase profiling. The procedure:
[The procedure below names another target; the source lists this target under the same test.] as §1

The target of assay [9] is T9, PKCbeta2 (Homo sapiens, UniProt P05771).
T9 construct: purchased Reaction Biology Corp
T9 sequence (P05771 1-673 isoform P05771-2): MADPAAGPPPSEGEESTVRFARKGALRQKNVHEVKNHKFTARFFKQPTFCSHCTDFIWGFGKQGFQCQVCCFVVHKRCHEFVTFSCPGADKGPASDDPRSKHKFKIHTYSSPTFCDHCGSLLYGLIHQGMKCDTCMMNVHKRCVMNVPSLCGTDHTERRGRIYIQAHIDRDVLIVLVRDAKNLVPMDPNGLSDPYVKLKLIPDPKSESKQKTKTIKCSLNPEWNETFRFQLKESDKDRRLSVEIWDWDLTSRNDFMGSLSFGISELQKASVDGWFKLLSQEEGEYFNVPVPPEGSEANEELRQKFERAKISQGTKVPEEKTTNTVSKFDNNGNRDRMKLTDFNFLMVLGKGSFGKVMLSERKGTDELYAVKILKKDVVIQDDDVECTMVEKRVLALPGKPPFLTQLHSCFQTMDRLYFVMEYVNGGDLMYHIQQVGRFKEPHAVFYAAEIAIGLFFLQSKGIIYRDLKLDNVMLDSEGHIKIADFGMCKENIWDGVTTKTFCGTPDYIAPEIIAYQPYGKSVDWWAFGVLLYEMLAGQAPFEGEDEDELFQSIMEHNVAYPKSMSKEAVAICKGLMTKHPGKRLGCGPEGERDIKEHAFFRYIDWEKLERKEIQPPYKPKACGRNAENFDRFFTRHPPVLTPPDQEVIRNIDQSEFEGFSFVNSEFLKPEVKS
In words: Kinase profiling. The procedure: [The procedure below names another target; the source lists this target under the same test.] as §1

Assay [10] concerns the target T10, Akt1 (Homo sapiens, UniProt P31749).
T10 construct: purchased Reaction Biology Corp
The assay is described as follows: Kinase profiling. As to the method: [The procedure below names another target; the source lists this target under the same test.] as §1

The target in assay [11] is T11, MEK1 (Homo sapiens, UniProt Q02750).
T11 construct: purchased Reaction Biology Corp
T11 sequence (Q02750 whole entry): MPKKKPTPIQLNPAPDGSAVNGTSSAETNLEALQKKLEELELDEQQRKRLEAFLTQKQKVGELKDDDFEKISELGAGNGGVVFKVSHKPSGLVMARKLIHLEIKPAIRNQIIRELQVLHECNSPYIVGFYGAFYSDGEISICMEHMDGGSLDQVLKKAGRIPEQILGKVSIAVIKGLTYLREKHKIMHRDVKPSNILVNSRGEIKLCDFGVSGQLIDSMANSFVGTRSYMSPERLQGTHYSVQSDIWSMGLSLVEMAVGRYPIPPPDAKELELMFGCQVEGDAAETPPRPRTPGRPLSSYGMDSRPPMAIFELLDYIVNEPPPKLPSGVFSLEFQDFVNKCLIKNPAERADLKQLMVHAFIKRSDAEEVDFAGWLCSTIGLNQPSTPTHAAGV
The assay is described as follows: Kinase profiling. The procedure: [The procedure below names another target; the source lists this target under the same test.] as §1

Assay [12] deals with T12, FYN (Homo sapiens, UniProt P06241).
T12 construct: purchased Reaction Biology Corp
In words: Kinase profiling. As to the method:
[The procedure below names another target; the source lists this target under the same test.] as §1

Assay [13] concerns the target T13, cMET (Homo sapiens, UniProt P08581).
T13 construct: purchased Reaction Biology Corp
The assay is described as follows: Kinase profiling. The procedure: [The procedure below names another target; the source lists this target under the same test.] as §1

Assay [14] concerns the target T14, PKCiota (Homo sapiens, UniProt P41743).
T14 construct: purchased Reaction Biology Corp
The assay is described as follows: Kinase profiling. As to the method:
[The procedure below names another target; the source lists this target under the same test.] as §1

For assay [15], the target named is T15, PKCbeta1 (Homo sapiens, UniProt P05771).
T15 construct: purchased Reaction Biology Corp
In words: Kinase profiling. The procedure: [The procedure below names another target; the source lists this target under the same test.] as §1

For assay [16], the target named is T16, PKCalpha (Homo sapiens, UniProt P17252).
T16 construct: purchased Reaction Biology Corp
In words: Kinase profiling. The procedure:
[The procedure below names another target; the source lists this target under the same test.] as §1

The target in assay [17] is T17, PKA (Homo sapiens, UniProt P17612).
T17 construct: purchased Reaction Biology Corp
In words: Kinase profiling. The procedure:
[The procedure below names another target; the source lists this target under the same test.] as §1

The target in assay [18] is T18, PDPK1 (Homo sapiens, UniProt O15530).
T18 construct: purchased Reaction Biology Corp
The assay is described as follows: Kinase profiling. As to the method: [The procedure below names another target; the source lists this target under the same test.] as §1

For assay [19], the target named is T19, PKCeta (Homo sapiens, UniProt P24723).
T19 construct: purchased Reaction Biology Corp
T19 sequence (P24723 whole entry): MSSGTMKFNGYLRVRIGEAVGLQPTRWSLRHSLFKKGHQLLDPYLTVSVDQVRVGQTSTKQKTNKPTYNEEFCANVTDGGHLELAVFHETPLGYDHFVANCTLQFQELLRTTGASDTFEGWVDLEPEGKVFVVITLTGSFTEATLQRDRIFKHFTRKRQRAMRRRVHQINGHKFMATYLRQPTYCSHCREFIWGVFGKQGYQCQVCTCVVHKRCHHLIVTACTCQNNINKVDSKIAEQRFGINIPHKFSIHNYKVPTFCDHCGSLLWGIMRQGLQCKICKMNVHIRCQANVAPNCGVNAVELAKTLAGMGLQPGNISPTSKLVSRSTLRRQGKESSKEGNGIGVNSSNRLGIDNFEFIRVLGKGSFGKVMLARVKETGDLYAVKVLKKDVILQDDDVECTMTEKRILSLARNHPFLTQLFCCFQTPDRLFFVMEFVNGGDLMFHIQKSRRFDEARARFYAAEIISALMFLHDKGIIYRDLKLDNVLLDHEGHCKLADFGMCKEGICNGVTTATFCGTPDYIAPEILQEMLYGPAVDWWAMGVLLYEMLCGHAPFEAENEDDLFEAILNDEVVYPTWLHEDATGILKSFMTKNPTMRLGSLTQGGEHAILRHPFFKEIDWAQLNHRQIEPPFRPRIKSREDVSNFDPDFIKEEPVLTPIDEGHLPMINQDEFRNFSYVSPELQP
The assay is described as follows: Kinase profiling. The procedure:
[The procedure below names another target; the source lists this target under the same test.] as §1

The target in assay [20] is T20, PKCmu (Homo sapiens, UniProt Q15139).
T20 construct: purchased Reaction Biology Corp
In words: Kinase profiling. As to the method:
[The procedure below names another target; the source lists this target under the same test.] as §1

Assay [21] has as its target T21, PKCgamma (Homo sapiens, UniProt P05129).
T21 construct: purchased Reaction Biology Corp
The assay is described as follows: Kinase profiling. The procedure:
[The procedure below names another target; the source lists this target under the same test.] as §1

Assay [22] addresses T22, PKCtheta (Homo sapiens, UniProt Q04759).
T22 construct: purchased Reaction Biology Corp
In words: Kinase profiling. As to the method: [The procedure below names another target; the source lists this target under the same test.] as §1

T1 sequence (Q02156 whole entry): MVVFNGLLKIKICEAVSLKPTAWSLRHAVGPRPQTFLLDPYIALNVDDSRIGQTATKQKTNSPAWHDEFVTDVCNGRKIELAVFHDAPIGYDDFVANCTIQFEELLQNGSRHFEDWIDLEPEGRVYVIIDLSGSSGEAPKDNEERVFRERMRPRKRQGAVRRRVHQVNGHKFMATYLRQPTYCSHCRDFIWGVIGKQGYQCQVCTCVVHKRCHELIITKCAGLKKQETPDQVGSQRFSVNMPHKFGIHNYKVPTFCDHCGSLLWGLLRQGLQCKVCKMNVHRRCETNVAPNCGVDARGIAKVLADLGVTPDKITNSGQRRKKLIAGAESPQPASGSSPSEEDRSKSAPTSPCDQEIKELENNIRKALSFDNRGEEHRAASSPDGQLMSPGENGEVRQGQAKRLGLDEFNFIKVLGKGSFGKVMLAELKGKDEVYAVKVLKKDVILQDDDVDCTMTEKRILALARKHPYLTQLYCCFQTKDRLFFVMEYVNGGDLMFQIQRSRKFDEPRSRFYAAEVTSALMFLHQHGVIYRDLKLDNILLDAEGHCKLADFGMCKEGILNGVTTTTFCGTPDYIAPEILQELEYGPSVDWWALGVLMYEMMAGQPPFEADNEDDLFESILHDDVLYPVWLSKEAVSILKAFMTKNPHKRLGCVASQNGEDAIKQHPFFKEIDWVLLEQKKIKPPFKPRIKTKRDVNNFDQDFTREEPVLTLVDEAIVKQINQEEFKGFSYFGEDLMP
T8 sequence (P04629 33-796): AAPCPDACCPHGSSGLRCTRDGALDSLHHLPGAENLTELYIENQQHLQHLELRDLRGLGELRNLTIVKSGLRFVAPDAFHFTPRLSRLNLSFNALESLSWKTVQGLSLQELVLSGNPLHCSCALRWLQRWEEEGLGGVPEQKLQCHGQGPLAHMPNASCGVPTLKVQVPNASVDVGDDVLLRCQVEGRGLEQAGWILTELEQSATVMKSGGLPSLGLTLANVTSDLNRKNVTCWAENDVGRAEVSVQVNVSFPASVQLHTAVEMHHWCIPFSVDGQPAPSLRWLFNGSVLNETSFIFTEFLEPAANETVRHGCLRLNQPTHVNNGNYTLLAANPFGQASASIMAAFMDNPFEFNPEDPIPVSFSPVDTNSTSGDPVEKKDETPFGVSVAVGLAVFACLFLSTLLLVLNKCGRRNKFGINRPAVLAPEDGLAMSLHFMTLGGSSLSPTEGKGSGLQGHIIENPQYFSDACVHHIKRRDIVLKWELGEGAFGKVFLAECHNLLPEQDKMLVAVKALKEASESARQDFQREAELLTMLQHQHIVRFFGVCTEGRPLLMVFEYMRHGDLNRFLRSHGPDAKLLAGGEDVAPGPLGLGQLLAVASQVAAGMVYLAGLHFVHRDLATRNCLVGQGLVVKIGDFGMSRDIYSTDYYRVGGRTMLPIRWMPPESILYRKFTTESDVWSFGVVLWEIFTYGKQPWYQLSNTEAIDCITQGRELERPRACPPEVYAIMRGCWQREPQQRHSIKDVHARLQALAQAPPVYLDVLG
T10 sequence (P31749 whole entry): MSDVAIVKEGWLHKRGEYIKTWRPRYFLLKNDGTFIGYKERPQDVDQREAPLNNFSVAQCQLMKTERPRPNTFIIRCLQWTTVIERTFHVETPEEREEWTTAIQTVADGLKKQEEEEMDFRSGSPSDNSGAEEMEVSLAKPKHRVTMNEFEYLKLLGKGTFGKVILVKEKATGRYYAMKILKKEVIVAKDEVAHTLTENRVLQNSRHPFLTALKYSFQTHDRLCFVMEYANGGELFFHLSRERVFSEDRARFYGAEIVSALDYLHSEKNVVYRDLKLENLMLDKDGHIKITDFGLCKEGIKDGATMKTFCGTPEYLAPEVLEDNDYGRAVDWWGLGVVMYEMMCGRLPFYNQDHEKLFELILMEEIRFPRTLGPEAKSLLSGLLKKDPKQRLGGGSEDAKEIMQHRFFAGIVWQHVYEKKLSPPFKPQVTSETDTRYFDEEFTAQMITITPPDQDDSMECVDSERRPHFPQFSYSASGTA

For `O=C(NCCCN1CCCC1)c1ccc(/C=C2\Sc3ccccc3N(Cc3ccccc3F)C2=O)cc1` [Compound 481, 4-{(Z/E)-[4-(2-fluorobenzyl)-3-oxo-3,4-dihydro-2H-1,4-benzothiazin-2-ylidene]methyl}-N-[3-(pyrrolidin-1-yl)propyl]benzamide], the “mode of PKCε inhibition with respect to ATP” value in [1] (FIG. 1, kinetic analysis) is listed as “non-competitively with ATP”. The “Vmax and km in Lineweaver-Burk double reciprocal plot” value in assay [1] (FIG. 1B, various compound concentrations plus vehicle control (4 conditions)) was “differences in Vmax but not in km”. Also, the IC50 in [2], in assay [3], in assay [4], in assay [5], in assay [6] and in [7] was above 20 µM in each case. In addition, the IC50 in assay [8], in [9], in assay [10], in assay [11], in [12] and in [13] was above 20 µM each time. Also, the IC50 in assay [14], in assay [15], in [16], in assay [17], in assay [18] and in assay [19] was above 20 µM throughout. The IC50 in assay [20], in assay [21] and in assay [22] was above 20 µM throughout.

As a reminder, the IC50 is the point on the concentration scale where inhibition reaches its midpoint. Read a high IC50 as lower potency.
